Data: ChEMBL document CHEMBL4507311, “Data for DCP probe A-1155463” (2021)

Legend:
[1] = biological target: Leucine-rich repeat serine/threonine-protein kinase 2 (Homo sapiens) (UniProt Q5S007); conditions: Compound concentration 1000.0 nM
[2] = biological target: 5-hydroxytryptamine receptor 1D (Homo sapiens) (UniProt P28221); conditions: Compound concentration 10.0 uM
[3] = test system: Proto-oncogene tyrosine-protein kinase receptor Ret (Homo sapiens), P07949 [M918T]; conditions: Compound concentration 1000.0 nM
[4] = biological target: Epidermal growth factor receptor (Homo sapiens) (UniProt P00533); conditions: Compound concentration 1000.0 nM
[5] = biological target: Mitogen-activated protein kinase kinase kinase kinase 3 (Homo sapiens) (UniProt Q8IVH8); conditions: Compound concentration 1000.0 nM
Chain of Mitogen-activated protein kinase kinase kinase kinase 3 (Homo sapiens) (Q8IVH8 whole entry): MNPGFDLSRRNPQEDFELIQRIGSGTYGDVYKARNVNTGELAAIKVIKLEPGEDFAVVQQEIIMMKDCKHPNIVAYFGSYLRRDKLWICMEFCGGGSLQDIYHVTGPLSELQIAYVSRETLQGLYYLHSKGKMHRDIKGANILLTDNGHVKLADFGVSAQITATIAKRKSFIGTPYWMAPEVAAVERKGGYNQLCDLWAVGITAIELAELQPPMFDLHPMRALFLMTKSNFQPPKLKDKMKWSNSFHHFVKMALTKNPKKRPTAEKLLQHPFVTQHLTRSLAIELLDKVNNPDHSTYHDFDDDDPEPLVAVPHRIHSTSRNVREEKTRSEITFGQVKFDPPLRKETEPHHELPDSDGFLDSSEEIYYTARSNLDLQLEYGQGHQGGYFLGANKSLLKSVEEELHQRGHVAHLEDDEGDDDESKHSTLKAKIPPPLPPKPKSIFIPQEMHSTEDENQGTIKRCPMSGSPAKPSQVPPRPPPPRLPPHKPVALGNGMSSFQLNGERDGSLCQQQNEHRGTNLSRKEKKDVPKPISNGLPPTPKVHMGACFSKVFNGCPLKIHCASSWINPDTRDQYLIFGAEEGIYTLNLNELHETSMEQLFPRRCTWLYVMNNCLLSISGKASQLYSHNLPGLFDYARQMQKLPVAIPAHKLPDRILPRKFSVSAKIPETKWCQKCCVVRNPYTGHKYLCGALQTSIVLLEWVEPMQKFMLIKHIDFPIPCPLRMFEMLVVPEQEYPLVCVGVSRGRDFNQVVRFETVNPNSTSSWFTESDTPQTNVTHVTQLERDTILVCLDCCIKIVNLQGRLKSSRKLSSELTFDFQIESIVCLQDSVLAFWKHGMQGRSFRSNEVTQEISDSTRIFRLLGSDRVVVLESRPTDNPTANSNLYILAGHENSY

[6] = biological target: Serine/threonine-protein kinase RIO1 (Homo sapiens) (UniProt Q9BRS2); conditions: Compound concentration 1000.0 nM
Chain of Serine/threonine-protein kinase RIO1 (Homo sapiens) (Q9BRS2 whole entry): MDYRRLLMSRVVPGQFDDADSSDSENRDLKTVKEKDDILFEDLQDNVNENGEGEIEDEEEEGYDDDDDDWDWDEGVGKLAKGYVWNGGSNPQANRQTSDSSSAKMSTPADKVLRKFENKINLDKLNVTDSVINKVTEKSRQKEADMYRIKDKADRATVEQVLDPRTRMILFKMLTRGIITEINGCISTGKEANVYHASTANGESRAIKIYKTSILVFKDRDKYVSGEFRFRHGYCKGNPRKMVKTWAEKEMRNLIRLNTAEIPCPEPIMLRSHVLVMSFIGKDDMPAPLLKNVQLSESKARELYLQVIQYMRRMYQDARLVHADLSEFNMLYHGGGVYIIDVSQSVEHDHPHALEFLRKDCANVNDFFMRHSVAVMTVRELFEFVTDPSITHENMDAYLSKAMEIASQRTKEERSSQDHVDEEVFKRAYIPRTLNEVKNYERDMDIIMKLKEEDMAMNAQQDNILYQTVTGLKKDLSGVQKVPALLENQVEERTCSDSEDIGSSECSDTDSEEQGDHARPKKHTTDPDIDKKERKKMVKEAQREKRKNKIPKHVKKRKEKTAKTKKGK

[7] = biological target: Interleukin-1 receptor-associated kinase 4 (Homo sapiens) (UniProt Q9NWZ3); conditions: Compound concentration 1000.0 nM
Chain of Interleukin-1 receptor-associated kinase 4 (Homo sapiens) (Q9NWZ3 whole entry): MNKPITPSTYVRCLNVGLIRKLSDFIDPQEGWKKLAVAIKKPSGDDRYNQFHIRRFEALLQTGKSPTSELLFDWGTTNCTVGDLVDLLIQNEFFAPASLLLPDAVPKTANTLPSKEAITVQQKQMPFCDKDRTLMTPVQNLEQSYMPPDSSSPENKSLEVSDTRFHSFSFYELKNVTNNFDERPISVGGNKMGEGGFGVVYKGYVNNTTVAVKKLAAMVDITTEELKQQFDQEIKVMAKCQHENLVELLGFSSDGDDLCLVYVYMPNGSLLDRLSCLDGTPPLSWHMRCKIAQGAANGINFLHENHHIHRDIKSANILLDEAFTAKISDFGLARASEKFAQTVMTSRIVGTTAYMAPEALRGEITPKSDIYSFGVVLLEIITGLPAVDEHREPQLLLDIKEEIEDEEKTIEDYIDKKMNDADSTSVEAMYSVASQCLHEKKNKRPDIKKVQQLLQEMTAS

[8] = biological target: Serine/threonine-protein kinase Nek5 (Homo sapiens) (UniProt Q6P3R8); conditions: Compound concentration 1000.0 nM
[9] = biological target: Serine/threonine-protein kinase STK11 (Homo sapiens) (UniProt Q15831); conditions: Compound concentration 1000.0 nM
Chain of Serine/threonine-protein kinase STK11 (Homo sapiens) (Q15831 whole entry): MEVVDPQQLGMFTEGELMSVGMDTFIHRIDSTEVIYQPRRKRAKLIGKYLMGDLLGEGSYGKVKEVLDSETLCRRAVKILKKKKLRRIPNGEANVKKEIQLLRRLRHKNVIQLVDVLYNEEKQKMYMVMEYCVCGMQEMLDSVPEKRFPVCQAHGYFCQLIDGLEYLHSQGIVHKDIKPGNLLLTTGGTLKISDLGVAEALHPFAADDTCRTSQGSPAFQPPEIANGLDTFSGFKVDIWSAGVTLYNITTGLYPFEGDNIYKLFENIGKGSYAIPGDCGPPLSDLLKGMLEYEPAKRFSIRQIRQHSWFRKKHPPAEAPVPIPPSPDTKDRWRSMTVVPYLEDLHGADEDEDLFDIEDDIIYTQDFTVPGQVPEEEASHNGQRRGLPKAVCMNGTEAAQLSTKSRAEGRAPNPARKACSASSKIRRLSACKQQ

[10] = biological target: Fibroblast growth factor receptor 4 (Homo sapiens) (UniProt P22455); conditions: Compound concentration 1000.0 nM
Chain of Fibroblast growth factor receptor 4 (Homo sapiens) (P22455 22-802 limits assumed): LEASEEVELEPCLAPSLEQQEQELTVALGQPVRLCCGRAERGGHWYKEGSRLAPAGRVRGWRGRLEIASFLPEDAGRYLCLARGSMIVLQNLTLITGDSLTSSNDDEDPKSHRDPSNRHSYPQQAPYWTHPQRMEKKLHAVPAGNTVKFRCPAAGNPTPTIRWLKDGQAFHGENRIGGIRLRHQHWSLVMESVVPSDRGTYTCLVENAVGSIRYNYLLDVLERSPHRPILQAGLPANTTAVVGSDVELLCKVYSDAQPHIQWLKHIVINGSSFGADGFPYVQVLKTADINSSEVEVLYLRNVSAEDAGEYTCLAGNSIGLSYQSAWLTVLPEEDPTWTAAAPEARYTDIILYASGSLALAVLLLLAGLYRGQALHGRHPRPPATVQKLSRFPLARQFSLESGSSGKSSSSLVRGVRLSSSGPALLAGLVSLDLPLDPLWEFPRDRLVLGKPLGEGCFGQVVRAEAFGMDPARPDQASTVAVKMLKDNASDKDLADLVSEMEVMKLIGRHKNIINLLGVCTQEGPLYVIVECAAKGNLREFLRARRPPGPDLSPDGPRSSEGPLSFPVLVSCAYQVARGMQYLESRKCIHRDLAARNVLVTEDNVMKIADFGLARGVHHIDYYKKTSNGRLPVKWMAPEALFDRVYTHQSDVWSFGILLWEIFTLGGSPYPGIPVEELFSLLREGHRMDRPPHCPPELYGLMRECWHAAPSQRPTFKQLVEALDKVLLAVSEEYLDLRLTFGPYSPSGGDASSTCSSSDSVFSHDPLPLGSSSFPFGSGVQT

[11] = biological target: Phosphatidylinositol 4-kinase beta (Homo sapiens) (UniProt Q9UBF8); conditions: Compound concentration 1000.0 nM
Chain of Phosphatidylinositol 4-kinase beta (Homo sapiens) (Q9UBF8 2-816 limits assumed): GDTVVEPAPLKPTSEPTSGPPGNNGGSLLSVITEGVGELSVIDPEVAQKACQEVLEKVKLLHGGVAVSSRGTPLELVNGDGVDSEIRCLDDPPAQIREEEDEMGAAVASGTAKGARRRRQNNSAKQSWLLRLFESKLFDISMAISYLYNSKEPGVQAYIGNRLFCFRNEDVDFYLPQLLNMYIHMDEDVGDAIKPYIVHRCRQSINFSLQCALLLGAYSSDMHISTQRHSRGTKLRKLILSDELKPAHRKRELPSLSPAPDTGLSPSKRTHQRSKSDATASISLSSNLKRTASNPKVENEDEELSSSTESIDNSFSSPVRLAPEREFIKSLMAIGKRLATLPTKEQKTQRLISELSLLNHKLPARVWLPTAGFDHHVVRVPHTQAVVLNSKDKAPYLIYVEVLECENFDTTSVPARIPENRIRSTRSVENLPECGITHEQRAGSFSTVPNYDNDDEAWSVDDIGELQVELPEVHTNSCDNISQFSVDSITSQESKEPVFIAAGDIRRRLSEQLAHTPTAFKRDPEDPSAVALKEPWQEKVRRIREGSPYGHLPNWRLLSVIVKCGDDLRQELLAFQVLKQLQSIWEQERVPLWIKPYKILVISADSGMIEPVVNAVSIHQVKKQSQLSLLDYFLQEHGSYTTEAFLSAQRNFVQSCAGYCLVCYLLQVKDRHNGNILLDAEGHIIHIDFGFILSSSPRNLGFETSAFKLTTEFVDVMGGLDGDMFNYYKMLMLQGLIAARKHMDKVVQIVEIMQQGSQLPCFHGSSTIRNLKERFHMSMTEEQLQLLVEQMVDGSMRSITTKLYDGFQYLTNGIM

[12] = biological target: Serine/threonine-protein kinase tousled-like 2 (Homo sapiens) (UniProt Q86UE8); conditions: Compound concentration 1000.0 nM
Chain of Serine/threonine-protein kinase tousled-like 2 (Homo sapiens) (Q86UE8 whole entry, looked up): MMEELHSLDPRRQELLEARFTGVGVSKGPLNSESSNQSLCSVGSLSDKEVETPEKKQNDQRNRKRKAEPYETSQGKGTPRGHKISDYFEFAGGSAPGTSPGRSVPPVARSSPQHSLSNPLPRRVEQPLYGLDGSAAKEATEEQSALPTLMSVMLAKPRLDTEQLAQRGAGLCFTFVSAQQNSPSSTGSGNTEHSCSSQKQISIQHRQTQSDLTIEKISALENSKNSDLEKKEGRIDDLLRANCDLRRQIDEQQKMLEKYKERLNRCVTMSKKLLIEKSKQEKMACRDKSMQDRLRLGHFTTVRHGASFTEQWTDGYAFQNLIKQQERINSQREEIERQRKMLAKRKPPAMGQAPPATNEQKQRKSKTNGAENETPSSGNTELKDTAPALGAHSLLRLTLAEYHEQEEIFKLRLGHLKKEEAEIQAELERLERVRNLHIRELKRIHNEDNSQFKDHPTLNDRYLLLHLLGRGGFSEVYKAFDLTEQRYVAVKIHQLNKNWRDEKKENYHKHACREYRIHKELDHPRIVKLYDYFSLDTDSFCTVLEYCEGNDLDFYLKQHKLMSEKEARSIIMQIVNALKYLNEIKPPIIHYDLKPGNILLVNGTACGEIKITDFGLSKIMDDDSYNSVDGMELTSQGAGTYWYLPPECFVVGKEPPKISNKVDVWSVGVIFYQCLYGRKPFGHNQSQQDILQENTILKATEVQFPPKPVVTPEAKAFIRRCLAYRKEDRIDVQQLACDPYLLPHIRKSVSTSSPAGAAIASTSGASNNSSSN

[13] = biological target: Serine/threonine-protein kinase D2 (Homo sapiens) (UniProt Q9BZL6); conditions: Compound concentration 1000.0 nM

CN(C)CC#Cc1ccc(OCCCc2sc(N3CCc4cccc(C(=O)Nc5nc6ccccc6s5)c4C3)nc2C(=O)O)c(F)c1 [A-1155463]
inactive: residual activity [1] 100% | inhibition [2] 34.5% | residual activity [3] 100% | residual activity [4] 87% | residual activity [5] 92% | residual activity [6] 91% | residual activity [7] 100% | residual activity [8] 87% | residual activity [9] 100% | residual activity [10] 100% | residual activity [11] 100% | residual activity [12] 100% | residual activity [13] 84%
